Here are results for 10 compounds from EP3529257B1, “[…] METHODS OF USE THEREOF” (Sage Therapeutics, Inc., priority 2016, dated 2018).

For the first assay, the target named is T1, GlunN1/GluN2A glutamate receptors (Homo sapiens, UniProt Q05586+Q12879).
T1 construct: expressed in transfected cells
T1 sequence (Q12879 23-1464, other chains not shown): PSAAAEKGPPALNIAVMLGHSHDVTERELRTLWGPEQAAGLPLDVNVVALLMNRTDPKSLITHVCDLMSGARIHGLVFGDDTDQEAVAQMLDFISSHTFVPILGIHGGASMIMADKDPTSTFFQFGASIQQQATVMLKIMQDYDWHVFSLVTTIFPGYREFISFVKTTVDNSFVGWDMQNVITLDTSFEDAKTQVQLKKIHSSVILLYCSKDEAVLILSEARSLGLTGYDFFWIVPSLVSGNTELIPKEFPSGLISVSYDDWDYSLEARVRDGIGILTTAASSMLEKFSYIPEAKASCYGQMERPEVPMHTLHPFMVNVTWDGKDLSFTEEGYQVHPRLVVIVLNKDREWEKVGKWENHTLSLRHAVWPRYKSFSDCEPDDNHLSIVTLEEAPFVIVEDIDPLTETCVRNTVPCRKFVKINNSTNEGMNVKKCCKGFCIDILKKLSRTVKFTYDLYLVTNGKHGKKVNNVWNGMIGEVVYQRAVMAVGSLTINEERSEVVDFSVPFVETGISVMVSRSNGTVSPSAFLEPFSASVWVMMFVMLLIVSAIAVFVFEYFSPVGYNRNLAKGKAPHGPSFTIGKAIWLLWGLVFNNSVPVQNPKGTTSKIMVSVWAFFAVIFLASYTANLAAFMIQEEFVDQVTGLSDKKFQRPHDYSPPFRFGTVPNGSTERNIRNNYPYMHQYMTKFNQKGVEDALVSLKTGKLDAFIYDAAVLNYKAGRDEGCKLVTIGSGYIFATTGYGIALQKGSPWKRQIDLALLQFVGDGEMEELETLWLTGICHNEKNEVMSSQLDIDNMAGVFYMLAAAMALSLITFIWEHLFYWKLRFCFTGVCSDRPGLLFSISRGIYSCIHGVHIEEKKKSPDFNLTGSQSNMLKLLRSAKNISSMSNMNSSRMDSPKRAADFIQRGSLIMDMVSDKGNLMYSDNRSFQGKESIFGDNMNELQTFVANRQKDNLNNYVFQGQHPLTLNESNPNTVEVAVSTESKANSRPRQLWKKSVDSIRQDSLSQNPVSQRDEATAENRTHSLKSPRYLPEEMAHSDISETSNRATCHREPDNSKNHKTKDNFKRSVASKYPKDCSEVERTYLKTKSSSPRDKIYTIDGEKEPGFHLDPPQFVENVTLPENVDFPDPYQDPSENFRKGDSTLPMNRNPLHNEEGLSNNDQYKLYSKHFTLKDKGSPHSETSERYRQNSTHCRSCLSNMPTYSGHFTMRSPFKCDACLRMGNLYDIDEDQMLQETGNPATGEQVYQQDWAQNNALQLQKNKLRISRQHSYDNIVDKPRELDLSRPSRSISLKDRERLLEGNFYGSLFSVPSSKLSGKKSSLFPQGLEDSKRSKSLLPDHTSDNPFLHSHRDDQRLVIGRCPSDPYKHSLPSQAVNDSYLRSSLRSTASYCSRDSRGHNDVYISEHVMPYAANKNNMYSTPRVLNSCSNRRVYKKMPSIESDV
The experiment in a line: Whole-cell patch clamp of mammalian cells (Ionworks Barracuda), positive allosteric modulation (PAM) of NMDA receptor, 2A. Format: cell-based. Conditions: HEK293 cells; % activation of current elicited with EC20 L-glutamate and 30 µM glycine. As for the experimental part: (§1) The measurements were perfomed using Ion Works Barracuda platform following this procedure: • Electrophysiological Procedures: • a) Intracellular solution (mM): 50 mM CsCl, 90 mM CsF, 2 mM MgCl2, 5 mM EGTA, 10 mM HEPES. Adjust to pH 7.2 with CsOH. • b) Extracellular solution, HB-PS (composition in mM): NaCl, 137; KCl, 1.0; CaCl2, 5; HEPES, 10; Glucose, 10; pH adjusted to 7.4 with NaOH (refrigerated until use). • c) Holding potential: -70 mV, potential during agonist/PAM application: -40 mV. • Recording procedure: • a) Extracellular buffer will be loaded into the PPC plate wells (11 µL per well). Cell suspension will be pipetted into the wells (9 µL per well) of the PPC planar electrode. • b) Whole-cell recording configuration will be established via patch perforation with membrane currents recorded by on-board patch clamp amplifiers. • c) Two recordings (scans) will be performed. First, during pre-application of test article alone (duration of pre-application - 5 min) and second, during test articles and agonist (EC20 L-glutamate and 30 µM glycine) co-application to detect positive modulatory effects of the test article.
(§2) Test Article Administration: The first pre-application will consist of the addition of 20 µL of 2X concentrated test article solution and, second, of 20 µL of 1X concentrated test article and agonist at 10 µL/s (2 second total application time).
(§3) PAM concentration-response data will be fitted to an equation of the form: % Activation = % L−glutamate EC20 + {(%MAX−%L−glutamateEC20)/[1+(([Test]/; EC50))^N]}, [formula] where [Test] will be the concentration of PAM (test article), EC50 will be the concentration of PAM producing half-maximal activation, N will be the Hill coefficient, % L-glutamate EC20 will be the percentage of the current Elicited with L-glutamate EC20, % MAX is the percentage of the current activated with the highest dose of PAM co-admitted with L-glutamate EC20 and % Activation will be the percentage of the current elicited with L-glutamate EC10-30 at each PAM concentration.
(§4) The maximal amplitude of the evoked currents are measured and defined as Peak Current Amplitude (PCA).
(In general: Patch clamp records ionic current or voltage across a cell membrane.)
Turning to `C[C@H](CCC1(O)CCC(OC(F)F)CC1)[C@H]1CC[C@H]2[C@@H]3CC[C@H]4C[C@](O)(C(F)(F)F)CC[C@]4(C)[C@H]3CC[C@]12C` (stereo partly shown) [Compound 5131], the “Avg Emax 2A (%)” value is 52.9%.

As to `C[C@H](CCC1(O)CCC(C)(C)CC1)[C@H]1CC[C@H]2[C@@H]3CC[C@@H]4C[C@](O)(C(F)(F)F)CC[C@]4(C)[C@H]3C(=O)C[C@]12C` [Compound 5294], the “Avg Emax 2A (%)” value turned out to be 32.4%.

Take `C[C@H](CC[C@](C)(O)C(F)(F)F)[C@H]1CC[C@H]2[C@@H]3CC=C4C[C@@](C)(O)CC[C@@H]4[C@H]3CC[C@]12C` [Compound 9062]: the “Avg Emax 2A (%)” value is given as 66.5%.

Regarding `CC[C@]1(O)CC[C@H]2C(=CC[C@@H]3[C@@H]2CC[C@]2(C)[C@@H]([C@H](C)CCC[C@@H](O)C(C)C)CC[C@@H]32)C1` [Compound 10114], the “Avg Emax 2A (%)” value is recorded as 146.3%.

As to `CC[C@]1(O)CC[C@H]2C(=CC[C@@H]3[C@@H]2CC[C@]2(C)[C@@H]([C@H](C)CCCC4(O)CCC(C)(C)CC4)CC[C@@H]32)C1` [Compound 10317], the “Avg Emax 2A (%)” value was 56.7%.

As to `CCC(O)CCC[C@@H](C)[C@H]1CC[C@H]2[C@@H]3CC=C4C[C@](O)(CC)CC[C@@H]4[C@H]3CC[C@]12C` (stereo partly shown) [Compound 10673], the “Avg Emax 2A (%)” value was determined as 215.5%.

As for `CC[C@H](O)CCC[C@@H](C)[C@H]1CC[C@H]2[C@@H]3CC=C4C[C@](O)(CC)CC[C@@H]4[C@H]3CC[C@]12C` [Compound 10949], the “Avg Emax 2A (%)” value is 97.4%.

Regarding `C[C@H](CCC[C@H](O)C(F)(F)F)[C@H]1CC[C@H]2[C@@H]3CC[C@H]4C[C@](O)(C(F)(F)F)CC[C@]4(C)[C@H]3CC[C@]12C` [Compound 11934], the “Avg Emax 2A (%)” value stood at 113.4%.

On to `C[C@H](CCC[C@@H](O)C(C)(C)C)[C@H]1CC[C@H]2[C@@H]3CC[C@H]4C[C@](O)(C(F)(F)F)CC[C@]4(C)[C@H]3CC[C@]12C` [Compound 12055], for which the “Avg Emax 2A (%)” value was 113.8%.

In the case of `C[C@H](CCC[C@H](O)C(C)(C)C)[C@H]1CC[C@H]2[C@@H]3CC[C@H]4C[C@](O)(C(F)(F)F)CC[C@]4(C)[C@H]3CC[C@]12C` [Compound 12156], the “Avg Emax 2A (%)” value worked out at 43.2%.

Staying with this assay, now noted: HEK293 cells; co-application with EC20 L-glutamate and 30 µM glycine; 8-point concentration-response.
A word on the EC50: it is the concentration needed to bring the measured effect to its halfway point. On to `C[C@H](CCC1(O)CCC(OC(F)F)CC1)[C@H]1CC[C@H]2[C@@H]3CC[C@H]4C[C@](O)(C(F)(F)F)CC[C@]4(C)[C@H]3CC[C@]12C` (stereo partly shown) [Compound 5131], for which the midpoint of the response, the EC50, lay at 33.6 nM.

Consider `C[C@H](CCC1(O)CCC(C)(C)CC1)[C@H]1CC[C@H]2[C@@H]3CC[C@@H]4C[C@](O)(C(F)(F)F)CC[C@]4(C)[C@H]3C(=O)C[C@]12C` [Compound 5294], for which the EC50 was over 10000 nM.

`C[C@H](CC[C@](C)(O)C(F)(F)F)[C@H]1CC[C@H]2[C@@H]3CC=C4C[C@@](C)(O)CC[C@@H]4[C@H]3CC[C@]12C` [Compound 9062] registered an EC50 of 34.5 nM.

For the compound `CC[C@]1(O)CC[C@H]2C(=CC[C@@H]3[C@@H]2CC[C@]2(C)[C@@H]([C@H](C)CCC[C@@H](O)C(C)C)CC[C@@H]32)C1` [Compound 10114], the EC50 was determined as 321 nM.

`CC[C@]1(O)CC[C@H]2C(=CC[C@@H]3[C@@H]2CC[C@]2(C)[C@@H]([C@H](C)CCCC4(O)CCC(C)(C)CC4)CC[C@@H]32)C1` [Compound 10317] showed an EC50 of over 10000 nM.

`CCC(O)CCC[C@@H](C)[C@H]1CC[C@H]2[C@@H]3CC=C4C[C@](O)(CC)CC[C@@H]4[C@H]3CC[C@]12C` (stereo partly shown) [Compound 10673] yielded an EC50 of 254 nM.

As for `CC[C@H](O)CCC[C@@H](C)[C@H]1CC[C@H]2[C@@H]3CC=C4C[C@](O)(CC)CC[C@@H]4[C@H]3CC[C@]12C` [Compound 10949], a half-maximal response (EC50) required 66.4 nM.

As to `C[C@H](CCC[C@H](O)C(F)(F)F)[C@H]1CC[C@H]2[C@@H]3CC[C@H]4C[C@](O)(C(F)(F)F)CC[C@]4(C)[C@H]3CC[C@]12C` [Compound 11934], it took 729 nM to reach a half-maximal effect (EC50).

`C[C@H](CCC[C@@H](O)C(C)(C)C)[C@H]1CC[C@H]2[C@@H]3CC[C@H]4C[C@](O)(C(F)(F)F)CC[C@]4(C)[C@H]3CC[C@]12C` [Compound 12055] came in with an EC50 of 506 nM.

In turn, `C[C@H](CCC[C@H](O)C(C)(C)C)[C@H]1CC[C@H]2[C@@H]3CC[C@H]4C[C@](O)(C(F)(F)F)CC[C@]4(C)[C@H]3CC[C@]12C` [Compound 12156] gave an EC50 of 154 nM.

For the next assay, the target named is T2, GluN2B glutamate receptors (Homo sapiens, UniProt Q05586+Q13224).
T2 construct: expressed in transfected cells; host or cells: mammalian cells (line not described for GluN2B)
T2 sequence (Q13224 27-1484, other chains not shown): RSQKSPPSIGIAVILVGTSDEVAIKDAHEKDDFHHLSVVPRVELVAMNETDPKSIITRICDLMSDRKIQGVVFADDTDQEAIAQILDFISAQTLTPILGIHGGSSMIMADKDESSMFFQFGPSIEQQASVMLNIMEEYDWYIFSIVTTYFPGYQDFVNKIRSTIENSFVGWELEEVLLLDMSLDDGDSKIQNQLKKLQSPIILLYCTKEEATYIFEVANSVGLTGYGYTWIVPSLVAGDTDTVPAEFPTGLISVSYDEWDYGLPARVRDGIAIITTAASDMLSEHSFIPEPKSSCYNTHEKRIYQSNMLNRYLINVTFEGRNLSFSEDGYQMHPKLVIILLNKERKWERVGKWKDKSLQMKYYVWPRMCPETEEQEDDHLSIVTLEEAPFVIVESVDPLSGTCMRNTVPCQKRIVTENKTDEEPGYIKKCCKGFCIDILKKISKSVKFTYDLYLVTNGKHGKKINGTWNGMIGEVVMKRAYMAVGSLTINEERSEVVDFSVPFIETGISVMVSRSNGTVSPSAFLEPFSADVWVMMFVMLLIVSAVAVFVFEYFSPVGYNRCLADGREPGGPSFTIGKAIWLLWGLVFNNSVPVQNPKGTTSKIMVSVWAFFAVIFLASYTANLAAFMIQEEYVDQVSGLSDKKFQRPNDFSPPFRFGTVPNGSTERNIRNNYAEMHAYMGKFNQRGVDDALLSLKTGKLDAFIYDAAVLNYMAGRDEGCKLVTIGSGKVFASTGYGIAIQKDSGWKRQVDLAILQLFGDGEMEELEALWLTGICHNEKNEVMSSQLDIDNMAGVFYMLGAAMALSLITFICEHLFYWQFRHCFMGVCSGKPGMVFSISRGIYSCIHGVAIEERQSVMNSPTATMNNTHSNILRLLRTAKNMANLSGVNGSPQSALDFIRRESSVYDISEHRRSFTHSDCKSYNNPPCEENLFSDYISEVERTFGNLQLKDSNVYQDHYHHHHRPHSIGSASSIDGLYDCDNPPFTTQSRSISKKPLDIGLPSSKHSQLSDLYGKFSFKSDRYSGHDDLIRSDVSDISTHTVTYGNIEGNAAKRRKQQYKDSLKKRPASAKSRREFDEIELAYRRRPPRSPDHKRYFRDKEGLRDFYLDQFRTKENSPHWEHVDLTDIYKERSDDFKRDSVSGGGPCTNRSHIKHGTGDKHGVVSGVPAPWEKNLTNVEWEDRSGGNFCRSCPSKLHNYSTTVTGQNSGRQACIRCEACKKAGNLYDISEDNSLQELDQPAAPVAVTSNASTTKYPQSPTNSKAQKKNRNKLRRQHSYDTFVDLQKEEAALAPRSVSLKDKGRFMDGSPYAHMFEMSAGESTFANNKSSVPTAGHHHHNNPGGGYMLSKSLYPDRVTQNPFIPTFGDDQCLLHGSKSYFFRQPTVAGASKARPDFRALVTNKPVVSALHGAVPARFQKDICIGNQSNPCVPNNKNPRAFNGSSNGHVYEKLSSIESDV
The experiment in a line: Whole-cell patch clamp of mammalian cells (Ionworks Barracuda), positive allosteric modulation (PAM) of NMDA receptor, 2B. The class given is cell-based. Conditions: % activation of current elicited with EC20 L-glutamate and 30 µM glycine. As for the experimental part:
as §1, §2, §3, §4
For `C[C@H](CCC1(O)CCC(OC(F)F)CC1)[C@H]1CC[C@H]2[C@@H]3CC[C@H]4C[C@](O)(C(F)(F)F)CC[C@]4(C)[C@H]3CC[C@]12C` (stereo partly shown) [Compound 5131], the “Avg Emax 2B (%)” value came out at 39.0%.

Consider `C[C@H](CCC1(O)CCC(C)(C)CC1)[C@H]1CC[C@H]2[C@@H]3CC[C@@H]4C[C@](O)(C(F)(F)F)CC[C@]4(C)[C@H]3C(=O)C[C@]12C` [Compound 5294], for which the “Avg Emax 2B (%)” value turned out to be 13.9%.

For the compound `C[C@H](CC[C@](C)(O)C(F)(F)F)[C@H]1CC[C@H]2[C@@H]3CC=C4C[C@@](C)(O)CC[C@@H]4[C@H]3CC[C@]12C` [Compound 9062], the “Avg Emax 2B (%)” value is 52.2%.

On to `CC[C@]1(O)CC[C@H]2C(=CC[C@@H]3[C@@H]2CC[C@]2(C)[C@@H]([C@H](C)CCC[C@@H](O)C(C)C)CC[C@@H]32)C1` [Compound 10114], for which the “Avg Emax 2B (%)” value is recorded as 179.1%.

In the case of `CC[C@]1(O)CC[C@H]2C(=CC[C@@H]3[C@@H]2CC[C@]2(C)[C@@H]([C@H](C)CCCC4(O)CCC(C)(C)CC4)CC[C@@H]32)C1` [Compound 10317], the “Avg Emax 2B (%)” value is listed as 59.9%.

On to `CCC(O)CCC[C@@H](C)[C@H]1CC[C@H]2[C@@H]3CC=C4C[C@](O)(CC)CC[C@@H]4[C@H]3CC[C@]12C` (stereo partly shown) [Compound 10673], for which the “Avg Emax 2B (%)” value was 213.5%.

With `CC[C@H](O)CCC[C@@H](C)[C@H]1CC[C@H]2[C@@H]3CC=C4C[C@](O)(CC)CC[C@@H]4[C@H]3CC[C@]12C` [Compound 10949], the “Avg Emax 2B (%)” value was determined as 147.4%.

`C[C@H](CCC[C@H](O)C(F)(F)F)[C@H]1CC[C@H]2[C@@H]3CC[C@H]4C[C@](O)(C(F)(F)F)CC[C@]4(C)[C@H]3CC[C@]12C` [Compound 11934]: the “Avg Emax 2B (%)” value stood at 70.0%.

With `C[C@H](CCC[C@@H](O)C(C)(C)C)[C@H]1CC[C@H]2[C@@H]3CC[C@H]4C[C@](O)(C(F)(F)F)CC[C@]4(C)[C@H]3CC[C@]12C` [Compound 12055], the “Avg Emax 2B (%)” value was determined as 184.7%.

As to `C[C@H](CCC[C@H](O)C(C)(C)C)[C@H]1CC[C@H]2[C@@H]3CC[C@H]4C[C@](O)(C(F)(F)F)CC[C@]4(C)[C@H]3CC[C@]12C` [Compound 12156], the “Avg Emax 2B (%)” value was 111.2%.

The assay is the same for the next values; noted with them: co-application with EC20 L-glutamate and 30 µM glycine; 8-point concentration-response.
In turn, `C[C@H](CCC1(O)CCC(OC(F)F)CC1)[C@H]1CC[C@H]2[C@@H]3CC[C@H]4C[C@](O)(C(F)(F)F)CC[C@]4(C)[C@H]3CC[C@]12C` (stereo partly shown) [Compound 5131] gave an EC50 of over 10000 nM.

`C[C@H](CCC1(O)CCC(C)(C)CC1)[C@H]1CC[C@H]2[C@@H]3CC[C@@H]4C[C@](O)(C(F)(F)F)CC[C@]4(C)[C@H]3C(=O)C[C@]12C` [Compound 5294] gave an EC50 of over 10000 nM.

With `C[C@H](CC[C@](C)(O)C(F)(F)F)[C@H]1CC[C@H]2[C@@H]3CC=C4C[C@@](C)(O)CC[C@@H]4[C@H]3CC[C@]12C` [Compound 9062], the response was half-maximal at 179 nM (EC50).

In turn, `CC[C@]1(O)CC[C@H]2C(=CC[C@@H]3[C@@H]2CC[C@]2(C)[C@@H]([C@H](C)CCC[C@@H](O)C(C)C)CC[C@@H]32)C1` [Compound 10114] gave a 50% effective concentration (EC50) of 506 nM.

As for `CC[C@]1(O)CC[C@H]2C(=CC[C@@H]3[C@@H]2CC[C@]2(C)[C@@H]([C@H](C)CCCC4(O)CCC(C)(C)CC4)CC[C@@H]32)C1` [Compound 10317], the EC50 was over 10000 nM.

Compound `CCC(O)CCC[C@@H](C)[C@H]1CC[C@H]2[C@@H]3CC=C4C[C@](O)(CC)CC[C@@H]4[C@H]3CC[C@]12C` (stereo partly shown) [Compound 10673] registered an EC50 of 180 nM.

In the case of `CC[C@H](O)CCC[C@@H](C)[C@H]1CC[C@H]2[C@@H]3CC=C4C[C@](O)(CC)CC[C@@H]4[C@H]3CC[C@]12C` [Compound 10949], a half-maximal effect (EC50) was put at 138 nM.

`C[C@H](CCC[C@H](O)C(F)(F)F)[C@H]1CC[C@H]2[C@@H]3CC[C@H]4C[C@](O)(C(F)(F)F)CC[C@]4(C)[C@H]3CC[C@]12C` [Compound 11934] yielded an EC50 of 470 nM.

As for `C[C@H](CCC[C@@H](O)C(C)(C)C)[C@H]1CC[C@H]2[C@@H]3CC[C@H]4C[C@](O)(C(F)(F)F)CC[C@]4(C)[C@H]3CC[C@]12C` [Compound 12055], the EC50 amounted to 1130 nM.

Compound `C[C@H](CCC[C@H](O)C(C)(C)C)[C@H]1CC[C@H]2[C@@H]3CC[C@H]4C[C@](O)(C(F)(F)F)CC[C@]4(C)[C@H]3CC[C@]12C` [Compound 12156] came in with an EC50 of 2460 nM.
